Measurements reported in ChEMBL document CHEMBL5649169 (ChemMedChem, 2018).

What was measured:
[1] = biological target: Heat shock 70 kDa protein 4 (Homo sapiens) (UniProt P34932); also: assay method not described here
Moesin (Homo sapiens) = Moesin (Homo sapiens) (UniProt P26038); also: assay method not described here
[2] = biological target: Calcium/calmodulin-dependent protein kinase kinase 2 (Homo sapiens) (UniProt Q96RR4); also: assay method not described here
[3] = biological target: Dihydrolipoyllysine-residue acetyltransferase component of pyruvate dehydrogenase complex, mitochondrial (Homo sapiens) (UniProt P10515); also: assay method not described here
[4] = biological target: Exocyst complex component 1 (Homo sapiens) (UniProt Q9NV70); also: assay method not described here
Chain of Exocyst complex component 1 (Homo sapiens) (Q9NV70 whole entry, one chain of several): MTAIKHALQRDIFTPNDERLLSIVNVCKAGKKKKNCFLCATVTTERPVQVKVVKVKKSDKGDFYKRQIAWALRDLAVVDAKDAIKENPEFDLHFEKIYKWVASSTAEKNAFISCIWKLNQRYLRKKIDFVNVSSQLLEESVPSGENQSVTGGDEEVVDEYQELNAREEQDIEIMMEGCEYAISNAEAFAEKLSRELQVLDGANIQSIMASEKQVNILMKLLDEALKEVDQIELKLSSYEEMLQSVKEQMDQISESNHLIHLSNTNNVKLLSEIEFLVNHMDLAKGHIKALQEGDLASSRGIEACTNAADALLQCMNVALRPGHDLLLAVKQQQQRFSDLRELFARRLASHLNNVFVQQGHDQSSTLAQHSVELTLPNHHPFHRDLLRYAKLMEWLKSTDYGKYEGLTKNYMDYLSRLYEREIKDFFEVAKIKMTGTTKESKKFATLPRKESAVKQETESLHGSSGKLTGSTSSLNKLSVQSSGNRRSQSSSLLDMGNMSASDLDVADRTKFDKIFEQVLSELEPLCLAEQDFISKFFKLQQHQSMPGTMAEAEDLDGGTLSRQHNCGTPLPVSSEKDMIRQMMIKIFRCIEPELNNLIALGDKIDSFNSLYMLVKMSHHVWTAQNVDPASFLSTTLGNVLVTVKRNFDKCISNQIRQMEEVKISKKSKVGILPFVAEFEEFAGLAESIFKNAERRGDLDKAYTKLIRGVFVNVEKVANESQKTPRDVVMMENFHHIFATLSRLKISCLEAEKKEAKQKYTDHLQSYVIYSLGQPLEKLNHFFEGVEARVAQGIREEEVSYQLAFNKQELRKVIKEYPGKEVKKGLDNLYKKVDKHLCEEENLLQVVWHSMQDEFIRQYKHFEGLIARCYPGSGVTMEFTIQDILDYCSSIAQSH

[5] = biological target: Proto-oncogene tyrosine-protein kinase receptor Ret (Homo sapiens) (UniProt P07949); also: assay method not described here
Metaxin-2 (Homo sapiens) = Metaxin-2 (Homo sapiens) (UniProt O75431); also: assay method not described here
[6] = biological target: 26S proteasome non-ATPase regulatory subunit 3 (Homo sapiens) (UniProt O43242); also: assay method not described here
Chain of 26S proteasome non-ATPase regulatory subunit 3 (Homo sapiens) (O43242 whole entry): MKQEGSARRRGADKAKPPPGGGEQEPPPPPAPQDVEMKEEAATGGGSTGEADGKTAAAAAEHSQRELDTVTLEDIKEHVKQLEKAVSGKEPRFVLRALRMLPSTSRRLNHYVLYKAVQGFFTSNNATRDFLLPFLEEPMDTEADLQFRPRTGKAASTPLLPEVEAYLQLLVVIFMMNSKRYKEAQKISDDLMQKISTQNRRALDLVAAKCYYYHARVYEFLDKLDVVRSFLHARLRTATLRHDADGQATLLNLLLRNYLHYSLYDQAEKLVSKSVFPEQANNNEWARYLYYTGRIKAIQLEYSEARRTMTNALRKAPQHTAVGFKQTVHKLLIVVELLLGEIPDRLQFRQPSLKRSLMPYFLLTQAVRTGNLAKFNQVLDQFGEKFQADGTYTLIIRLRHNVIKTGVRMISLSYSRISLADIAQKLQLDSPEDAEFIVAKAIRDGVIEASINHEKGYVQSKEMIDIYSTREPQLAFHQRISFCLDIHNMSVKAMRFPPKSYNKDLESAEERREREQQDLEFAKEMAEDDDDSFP

[7] = biological target: G1/S-specific cyclin-E1 (Homo sapiens) (UniProt P24864); also: assay method not described here
Chain of G1/S-specific cyclin-E1 (Homo sapiens) (P24864 whole entry): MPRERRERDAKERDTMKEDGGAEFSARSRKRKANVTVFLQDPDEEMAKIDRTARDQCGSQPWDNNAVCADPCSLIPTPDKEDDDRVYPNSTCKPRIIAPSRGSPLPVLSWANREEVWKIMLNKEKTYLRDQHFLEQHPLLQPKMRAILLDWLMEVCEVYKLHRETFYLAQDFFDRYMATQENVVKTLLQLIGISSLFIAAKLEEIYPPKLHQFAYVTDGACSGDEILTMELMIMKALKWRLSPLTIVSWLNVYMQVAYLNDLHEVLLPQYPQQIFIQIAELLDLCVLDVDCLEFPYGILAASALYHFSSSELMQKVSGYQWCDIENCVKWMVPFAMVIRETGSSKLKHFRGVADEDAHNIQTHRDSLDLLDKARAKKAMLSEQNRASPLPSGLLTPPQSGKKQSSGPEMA

[8] = biological target: Cytochrome b-c1 complex subunit 2, mitochondrial (Homo sapiens) (UniProt P22695); also: assay method not described here
Chain of Cytochrome b-c1 complex subunit 2, mitochondrial (Homo sapiens) (P22695 whole entry, one chain of several): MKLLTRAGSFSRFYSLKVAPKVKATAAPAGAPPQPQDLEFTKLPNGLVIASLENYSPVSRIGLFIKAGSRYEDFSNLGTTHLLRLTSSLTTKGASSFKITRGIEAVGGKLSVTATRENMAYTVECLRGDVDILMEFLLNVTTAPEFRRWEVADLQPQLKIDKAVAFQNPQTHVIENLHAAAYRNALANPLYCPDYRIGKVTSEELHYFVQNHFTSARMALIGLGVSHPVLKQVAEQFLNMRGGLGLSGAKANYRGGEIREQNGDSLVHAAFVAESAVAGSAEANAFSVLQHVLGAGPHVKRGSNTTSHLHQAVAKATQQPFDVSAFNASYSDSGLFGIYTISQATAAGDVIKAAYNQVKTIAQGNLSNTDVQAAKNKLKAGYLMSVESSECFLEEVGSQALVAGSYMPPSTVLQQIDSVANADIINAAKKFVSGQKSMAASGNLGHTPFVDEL

[9] = biological target: Calpain-1 catalytic subunit (Homo sapiens) (UniProt P07384); also: assay method not described here
Cyclin-H (Homo sapiens) = Cyclin-H (Homo sapiens) (UniProt P51946); also: assay method not described here
[10] = biological target: Nucleoprotein TPR (Homo sapiens) (UniProt P12270); also: assay method not described here
[11] = biological target: Serine/threonine-protein kinase SIK3 (Homo sapiens) (UniProt Q9Y2K2); also: assay method not described here
Homo sapiens [12] = species: Homo sapiens; also: assay method not described here
Homo sapiens [13] = species: Homo sapiens; remark: listed apart in the source; also: assay method not described here
[14] = biological target: 5'-AMP-activated protein kinase subunit gamma-1 (Homo sapiens) (UniProt P54619); also: assay method not described here
Chain of 5'-AMP-activated protein kinase subunit gamma-1 (Homo sapiens) (P54619 whole entry): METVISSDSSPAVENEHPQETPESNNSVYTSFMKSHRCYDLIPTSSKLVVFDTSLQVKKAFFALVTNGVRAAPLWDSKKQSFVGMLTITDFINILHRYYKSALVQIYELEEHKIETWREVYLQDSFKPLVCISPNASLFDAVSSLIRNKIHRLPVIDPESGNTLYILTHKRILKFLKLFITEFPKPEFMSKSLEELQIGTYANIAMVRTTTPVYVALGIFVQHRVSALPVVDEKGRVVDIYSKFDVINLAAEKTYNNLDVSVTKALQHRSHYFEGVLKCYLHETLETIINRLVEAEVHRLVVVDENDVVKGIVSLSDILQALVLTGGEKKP

[15] = biological target: Double-stranded RNA-binding protein Staufen homolog 1 (Homo sapiens) (UniProt O95793); also: assay method not described here
[16] = biological target: MICOS complex subunit MIC19 (Homo sapiens) (UniProt Q9NX63); also: assay method not described here
[17] = biological target: Coatomer subunit epsilon (Homo sapiens) (UniProt O14579); also: assay method not described here
[18] = biological target: Phosphatidylserine synthase 1 (Homo sapiens) (UniProt P48651); also: assay method not described here
[19] = biological target: WASH complex subunit 5 (Homo sapiens) (UniProt Q12768); also: assay method not described here
[20] = biological target: GPI-anchor transamidase component GPAA1 (Homo sapiens) (UniProt O43292); also: assay method not described here
[21] = biological target: Aspartate--tRNA ligase, cytoplasmic (Homo sapiens) (UniProt P14868); also: assay method not described here
[22] = biological target: Protein transport protein Sec61 subunit beta (Homo sapiens) (UniProt P60468); also: assay method not described here
Chain of Protein transport protein Sec61 subunit beta (Homo sapiens) (P60468 whole entry): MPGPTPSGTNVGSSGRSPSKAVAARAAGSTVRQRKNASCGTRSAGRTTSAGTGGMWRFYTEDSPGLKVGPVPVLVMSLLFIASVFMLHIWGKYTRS

[23] = biological target: Ephrin type-A receptor 1 (Homo sapiens) (UniProt P21709)
[24] = biological target: Calcium load-activated calcium channel (Homo sapiens) (UniProt Q9UM00); also: assay method not described here
Chain of Calcium load-activated calcium channel (Homo sapiens) (Q9UM00 whole entry): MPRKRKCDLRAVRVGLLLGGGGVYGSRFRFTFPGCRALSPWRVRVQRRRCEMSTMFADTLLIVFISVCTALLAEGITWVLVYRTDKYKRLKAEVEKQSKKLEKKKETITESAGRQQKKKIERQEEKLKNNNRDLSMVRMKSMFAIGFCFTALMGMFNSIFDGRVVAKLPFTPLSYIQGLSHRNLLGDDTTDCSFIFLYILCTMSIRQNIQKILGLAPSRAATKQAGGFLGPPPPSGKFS

[25] = biological target: AP-2 complex subunit sigma (Homo sapiens) (UniProt P53680); also: assay method not described here
[26] = biological target: Reticulon-4 (Homo sapiens) (UniProt Q9NQC3); also: assay method not described here
[27] = biological target: Dolichyl-diphosphooligosaccharide--protein glycosyltransferase subunit STT3A (Homo sapiens) (UniProt P46977); also: assay method not described here
Chain of Dolichyl-diphosphooligosaccharide--protein glycosyltransferase subunit STT3A (Homo sapiens) (P46977 whole entry): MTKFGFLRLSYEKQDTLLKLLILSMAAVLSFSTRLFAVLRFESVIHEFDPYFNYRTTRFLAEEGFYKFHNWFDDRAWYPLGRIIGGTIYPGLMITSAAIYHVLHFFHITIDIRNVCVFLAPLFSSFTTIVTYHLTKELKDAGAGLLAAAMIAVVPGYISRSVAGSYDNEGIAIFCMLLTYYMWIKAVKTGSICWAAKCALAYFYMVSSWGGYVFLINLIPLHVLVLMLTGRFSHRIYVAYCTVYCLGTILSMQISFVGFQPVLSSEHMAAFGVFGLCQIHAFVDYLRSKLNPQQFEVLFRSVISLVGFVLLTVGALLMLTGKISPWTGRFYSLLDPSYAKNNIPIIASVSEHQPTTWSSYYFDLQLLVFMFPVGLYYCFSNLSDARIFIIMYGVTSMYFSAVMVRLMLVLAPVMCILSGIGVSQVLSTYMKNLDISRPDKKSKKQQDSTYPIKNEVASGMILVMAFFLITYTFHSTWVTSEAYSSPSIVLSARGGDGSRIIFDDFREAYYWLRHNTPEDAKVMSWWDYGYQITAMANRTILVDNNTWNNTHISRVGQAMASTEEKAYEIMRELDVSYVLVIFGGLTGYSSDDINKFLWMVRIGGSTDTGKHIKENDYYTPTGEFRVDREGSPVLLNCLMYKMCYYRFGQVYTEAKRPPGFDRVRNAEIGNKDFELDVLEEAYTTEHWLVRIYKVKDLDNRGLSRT

[28] = biological target: Spectrin beta chain, non-erythrocytic 1 (Homo sapiens) (UniProt Q01082); also: assay method not described here
[29] = biological target: Heat shock 70 kDa protein 1A/1B (Homo sapiens) (UniProt P0DMV8+P0DMV9); also: assay method not described here
[30] = biological target: Single-stranded DNA-binding protein, mitochondrial (Homo sapiens) (UniProt Q04837); also: assay method not described here
[31] = biological target: Delta(14)-sterol reductase LBR (Homo sapiens) (UniProt Q14739); also: assay method not described here
Chain of Delta(14)-sterol reductase LBR (Homo sapiens) (Q14739 whole entry): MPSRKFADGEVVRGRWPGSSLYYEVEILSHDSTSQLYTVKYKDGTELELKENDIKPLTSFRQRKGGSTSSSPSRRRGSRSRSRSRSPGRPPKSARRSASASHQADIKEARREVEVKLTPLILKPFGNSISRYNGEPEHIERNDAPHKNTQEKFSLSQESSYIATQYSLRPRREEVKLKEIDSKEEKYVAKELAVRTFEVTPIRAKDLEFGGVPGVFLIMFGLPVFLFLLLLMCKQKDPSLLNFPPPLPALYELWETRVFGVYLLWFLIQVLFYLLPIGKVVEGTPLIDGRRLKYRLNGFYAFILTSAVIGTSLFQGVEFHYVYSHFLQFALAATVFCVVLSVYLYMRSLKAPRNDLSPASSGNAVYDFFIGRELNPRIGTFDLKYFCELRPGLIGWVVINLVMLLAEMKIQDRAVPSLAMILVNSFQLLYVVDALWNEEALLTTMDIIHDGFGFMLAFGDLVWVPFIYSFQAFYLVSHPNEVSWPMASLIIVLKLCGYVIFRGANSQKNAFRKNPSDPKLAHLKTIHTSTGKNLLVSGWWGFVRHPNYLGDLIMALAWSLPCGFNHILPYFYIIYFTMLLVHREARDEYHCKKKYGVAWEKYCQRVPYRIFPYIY

[32] = biological target: RAC-gamma serine/threonine-protein kinase (Homo sapiens) (UniProt Q9Y243); also: assay method not described here
[33] = biological target: SUN domain-containing protein 2 (Homo sapiens) (UniProt Q9UH99); also: assay method not described here
[34] = biological target: Membrane-associated progesterone receptor component 1 (Homo sapiens) (UniProt O00264); also: assay method not described here
Chain of Membrane-associated progesterone receptor component 1 (Homo sapiens) (O00264 whole entry): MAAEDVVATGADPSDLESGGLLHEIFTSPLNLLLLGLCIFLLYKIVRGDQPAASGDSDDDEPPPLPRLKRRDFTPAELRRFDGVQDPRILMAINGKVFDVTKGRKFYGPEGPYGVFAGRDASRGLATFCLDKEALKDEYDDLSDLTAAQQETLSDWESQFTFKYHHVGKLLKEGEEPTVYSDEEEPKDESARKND

[35] = biological target: E3 ubiquitin/ISG15 ligase TRIM25 (Homo sapiens) (UniProt Q14258); also: assay method not described here
[36] = biological target: THO complex subunit 2 (Homo sapiens) (UniProt Q8NI27); also: assay method not described here
Ephrin type-B receptor 2 = Ephrin type-B receptor 2 (Homo sapiens, UniProt P29323); experiment: Inhibition of Nano Luc-fused full length C-terminal EPHB2 (unknown origin) expressed in HEK293T cells using NanoGlo as substrate incubated for 2 hrs in presence of tracer by NanoBRET assay; assay type: cell-based
[37] = biological target: Large ribosomal subunit protein eL38 (Homo sapiens) (UniProt P63173); also: assay method not described here
Nestin (Homo sapiens) = Nestin (Homo sapiens) (UniProt P48681); also: assay method not described here
[38] = biological target: 14-3-3 protein epsilon (Homo sapiens) (UniProt P62258); also: assay method not described here
Ephrin type-A receptor 1 = Ephrin type-A receptor 1 (Homo sapiens, UniProt P21709); experiment: Inhibition of Nano Luc-fused full length C-terminal EPHA1 (unknown origin) expressed in HEK293T cells using NanoGlo as substrate incubated for 2 hrs in presence of tracer by NanoBRET assay; assay type: cell-based
[39] = biological target: Protein disulfide-isomerase (Homo sapiens) (UniProt P07237); also: assay method not described here
Chain of Protein disulfide-isomerase (Homo sapiens) (P07237 18-508 limits assumed): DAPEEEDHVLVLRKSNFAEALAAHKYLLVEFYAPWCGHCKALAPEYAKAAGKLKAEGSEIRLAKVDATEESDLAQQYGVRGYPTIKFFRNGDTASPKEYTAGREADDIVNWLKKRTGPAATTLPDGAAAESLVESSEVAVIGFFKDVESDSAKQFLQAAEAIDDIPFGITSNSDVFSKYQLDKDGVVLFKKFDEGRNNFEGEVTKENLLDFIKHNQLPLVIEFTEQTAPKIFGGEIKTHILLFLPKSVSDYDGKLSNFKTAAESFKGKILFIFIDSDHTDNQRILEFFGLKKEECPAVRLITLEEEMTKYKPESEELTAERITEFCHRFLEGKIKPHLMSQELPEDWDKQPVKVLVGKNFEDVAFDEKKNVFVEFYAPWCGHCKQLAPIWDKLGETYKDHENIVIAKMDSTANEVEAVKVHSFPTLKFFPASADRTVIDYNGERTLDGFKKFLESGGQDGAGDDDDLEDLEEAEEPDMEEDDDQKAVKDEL
For ED50 in this document: assay method not described here.

Cc1ccc(C(=O)Nc2cccc(C(F)(F)F)c2)cc1Nc1nc(-c2cccnc2)nc2c1cnn2C
ED50 [1]: 3180 nM | ED50 (Moesin (Homo sapiens)): 10700 nM | ED50 [2]: 112 nM | ED50 [3]: 2580 nM | ED50 [4]: 11.2 nM | ED50 [5]: 5110 nM | ED50 (Metaxin-2 (Homo sapiens)): 10.1 nM | ED50 [6]: 6220 nM | ED50 [7]: 103 nM | ED50 [8]: 5.84 nM | ED50 [9]: 3520 nM | ED50 (Cyclin-H (Homo sapiens)): 55.3 nM | ED50 [10]: 10400 nM | ED50 [11]: 112000 nM | ED50 (Homo sapiens [12]): 1180 nM | ED50 (Homo sapiens [13]): 106000 nM | ED50 [14]: 3120 nM | ED50 [15]: 2270 nM | ED50 [16]: 27.1 nM | ED50 [17]: 787 nM | ED50 [18]: 6640 nM | ED50 [19]: 0.337 nM | ED50 [20]: 56500 nM | ED50 [21]: 56.4 nM | ED50 [22]: 11500 nM | ED50 [23]: 64 nM | ED50 [24]: 21.9 nM | ED50 [25]: 678 nM | ED50 [26]: 5.31 nM | ED50 [27]: 1120 nM | ED50 [28]: 1610 nM | ED50 [29]: 181 nM | ED50 [30]: 6.21 nM | ED50 [31]: 5780 nM | ED50 [32]: 5.9 nM | ED50 [33]: 13500 nM | ED50 [34]: 651 nM | ED50 [35]: 401000 nM | ED50 [36]: 8400 nM | IC50 (Ephrin type-B receptor 2): 2.5 nM | ED50 [37]: 8360 nM | ED50 (Nestin (Homo sapiens)): 244 nM | ED50 [38]: 6150 nM | IC50 (Ephrin type-A receptor 1): 303 nM | ED50 [39]: 4250 nM

Cc1ccc(C(=O)Nc2cccc(C(F)(F)F)c2)cc1Nc1nc(-c2cccnc2)nc2nn(C)cc12
ED50 [1]: 77.7 nM | ED50 (Moesin (Homo sapiens)): 256 nM | ED50 [2]: 10200 nM | ED50 [3]: 55 nM | ED50 [4]: 79.4 nM | ED50 [5]: 6.3 nM | ED50 (Metaxin-2 (Homo sapiens)): 1770 nM | ED50 [6]: 19.7 nM | ED50 [7]: 20.6 nM | ED50 [8]: 6.16 nM | ED50 [9]: 161 nM | ED50 (Cyclin-H (Homo sapiens)): 13200 nM | ED50 [10]: 7760 nM | ED50 [11]: 10400 nM | ED50 (Homo sapiens [12]): 131 nM | ED50 (Homo sapiens [13]): 14700 nM | ED50 [14]: 29.2 nM | ED50 [15]: 13.4 nM | ED50 [16]: 14.4 nM | ED50 [17]: 126 nM | ED50 [18]: 84.5 nM | ED50 [19]: 3060 nM | ED50 [20]: 841 nM | ED50 [21]: 6720 nM | ED50 [22]: 3000 nM | ED50 [23]: 4580 nM | ED50 [24]: 281 nM | ED50 [25]: 17.9 nM | ED50 [26]: 3550 nM | ED50 [27]: 9.86 nM | ED50 [28]: 90.8 nM | ED50 [29]: 1610 nM | ED50 [30]: 34.6 nM | ED50 [31]: 81.6 nM | ED50 [32]: 3140 nM | ED50 [33]: 111 nM | ED50 [34]: 23200 nM | ED50 [35]: 52.8 nM | ED50 [36]: 2050 nM | IC50 (Ephrin type-B receptor 2): 630 nM | ED50 [37]: 27.4 nM | ED50 (Nestin (Homo sapiens)): 1300 nM | ED50 [38]: 47.7 nM | IC50 (Ephrin type-A receptor 1): 16800 nM | ED50 [39]: 11700 nM
